Experimental data from patent US20090131481A1, “Transcription Factor Modulating Compounds and Methods of Use Thereof” (Paratek Pharmaceuticals, Inc., published 2009).
Where two headings read alike, the source gives them in different places.

How the values were obtained:
[1] = molecular target: LcrF (VirF) (Yersinia pestis, UniProt P28808); assay: biochemical; assay type: binding, Y. pseudotuberculosis
[2] = molecular target: T1, ExsA (Pseudomonas aeruginosa, UniProt P26993); assay: Chemiluminescence-based ExsA-DNA binding assay; design: species or system P. aeruginosa
T1 construct: made in house
T1 sequence (P26993 1-278): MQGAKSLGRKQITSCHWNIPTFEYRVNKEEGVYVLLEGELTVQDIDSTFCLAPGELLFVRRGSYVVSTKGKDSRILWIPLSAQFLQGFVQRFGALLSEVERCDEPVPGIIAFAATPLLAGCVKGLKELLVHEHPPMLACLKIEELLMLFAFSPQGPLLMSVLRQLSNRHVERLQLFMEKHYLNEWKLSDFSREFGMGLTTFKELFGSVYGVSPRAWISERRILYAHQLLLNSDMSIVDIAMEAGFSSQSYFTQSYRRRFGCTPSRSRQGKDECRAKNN

[3] = molecular target: T2, Rob (Escherichia coli, UniProt P0ACI0); assay: Chemiluminescence-based Rob-DNA binding assay; design: species or system E. coli; details: Table 10
T2 sequence (P0ACI0 1-289): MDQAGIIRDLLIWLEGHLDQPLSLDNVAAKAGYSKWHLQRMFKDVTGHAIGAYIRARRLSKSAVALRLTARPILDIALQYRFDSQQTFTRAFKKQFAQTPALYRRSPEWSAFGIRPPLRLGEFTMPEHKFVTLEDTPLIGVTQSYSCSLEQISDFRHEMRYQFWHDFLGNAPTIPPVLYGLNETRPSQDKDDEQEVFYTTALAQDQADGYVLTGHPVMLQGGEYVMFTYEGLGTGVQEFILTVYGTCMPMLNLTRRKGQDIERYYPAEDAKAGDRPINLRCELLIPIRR

[4] = molecular target: T3, Rma (Salmonella typhimurium, UniProt H9L484); assay: Chemiluminescence-based Rma-DNA binding assay; design: species or system S. typhimurium; details: Table 10
T3 construct: fused on or other part: 6-histidine tag
T3 sequence (H9L484 1-113): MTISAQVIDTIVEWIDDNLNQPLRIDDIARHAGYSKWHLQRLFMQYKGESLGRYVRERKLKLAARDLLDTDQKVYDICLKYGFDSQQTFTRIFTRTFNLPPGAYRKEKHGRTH

[5] = molecular target: T4, SoxS (Escherichia coli, UniProt P0A9E2); assay: Chemiluminescence-based SoxS-DNA binding assay; design: made in house; species or system E. coli; details: Table 10; read-out: SoxS EC50
T4 sequence (P0A9E2 1-107): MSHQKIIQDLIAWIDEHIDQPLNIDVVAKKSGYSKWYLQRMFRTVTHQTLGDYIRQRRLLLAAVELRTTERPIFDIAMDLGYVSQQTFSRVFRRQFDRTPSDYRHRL

[6] = test system: Y. pseudotuberculosis; assay: microbe, parasite or virus in culture; details: Yersinia pseudotuberculosis, J774, read-out: % Cytotoxicity
[7] = molecular target: T5, SlyA (Escherichia coli, UniProt P0A8W2); assay: biochemical; assay type: binding, E. coli
T5 sequence (P0A8W2 1-144): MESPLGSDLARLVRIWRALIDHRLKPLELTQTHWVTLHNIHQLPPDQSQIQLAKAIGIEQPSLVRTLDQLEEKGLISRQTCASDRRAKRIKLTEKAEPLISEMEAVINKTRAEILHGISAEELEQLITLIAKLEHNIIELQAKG

[8] = test system: P. aeruginosa; assay: P. aeruginosa cytotoxicity whole cell assay (J774 cells, LDH release); details: relative to vehicle treated cells infected with wild type P. aeruginosa
[9] = test system: E. coli UPEC strain C189; assay: Ascending pyelonephritis model of infection (Example 3); assay type: in vivo; details: female CD1 mice, oral dosing at infection and once a day for 4 days, 5-day infection
[10] = test system: Y. pseudotuberculosis; details: in vivo, sc, 25 mg/kg
[11] = test system: Y. pseudotuberculosis; details: in vivo, sc, 25 mg/kg; remark: listed apart in the source
[12] = test system: E. coli C189 (clinical cystitis isolate); assay: E. coli ascending pyelonephritis model, compound GM (Example 4); assay type: in vivo; details: CD1 mice
[13] = molecular target: ExsA (Pseudomonas aeruginosa, UniProt P26993 P26993:1-278); assay: LANCE TR-FRET; same buffer; basis of inhibitor screen; details: tags: 6xHis; label: N-term (5') biotin
[14] = EC50 for inhibition of LcrF(VirF)-DNA binding
[15] = Table 7, cell-free system, read-out: ExsA EC50
[16] = Y. pseudotuberculosis VirF EC50
[17] = Table 11, subsequent assay, read-out: P. aeruginosa ExsA EC50

Chain of LcrF (VirF) (P28808 whole entry, looked up): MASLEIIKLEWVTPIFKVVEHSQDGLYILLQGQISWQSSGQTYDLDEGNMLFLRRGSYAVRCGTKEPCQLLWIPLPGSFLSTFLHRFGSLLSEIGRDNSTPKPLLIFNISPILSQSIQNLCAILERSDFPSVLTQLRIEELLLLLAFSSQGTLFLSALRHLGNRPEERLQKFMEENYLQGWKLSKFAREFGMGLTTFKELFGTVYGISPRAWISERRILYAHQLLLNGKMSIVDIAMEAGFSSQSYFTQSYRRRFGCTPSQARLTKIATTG

## O=C(Nc1ccc(-c2nc3ccc([N+](=O)[O-])cc3n2O)cc1)c1ccc(F)cc1 [C]
[1]; [14]
  EC50: 10 to 25 µM
[2]; [15]
  EC50: < 10 µM
[2]; Table 10, read-out: ExsA EC50
  EC50: 1 to 4.9 µM
[3]
  EC50: 1 to 4.9 µM
[4]
  EC50: 1 to 4.9 µM
[5]
  EC50: 1 to 4.9 µM
[6]
  activity at 50 µg/mL: 75 to 99%

## COc1cc(F)ccc1C(=O)Nc1ccc(-c2nc3ccc([N+](=O)[O-])cc3n2O)cc1 [DE]
[1]; [16]
  EC50: < 5 µM
[2]; [17]
  EC50: < 5 µM
[7]
  EC50: > 15.1 µM
[6]
  activity at 50 µg/mL: 75 to 99%
[8]
  Cytotoxicity at 50 μg/mL Pseudomonas: * (reduced P. aeruginosa cytotoxicity to 99-75% of untreated, wild type levels at 50 mg/mL)

## CCc1cc(-c2nc3ccc([N+](=O)[O-])cc3n2O)ccc1NC(=O)/C=C/c1ccc(C)cc1 [DP]
[1]; [16]
  EC50: < 5 µM
[2]; [17]
  EC50: 5.1 to 15 µM
[7]
  EC50: > 15.1 µM
[6]
  activity at 50 µg/mL: < 75%
[8]
  Cytotoxicity at 50 μg/mL Pseudomonas: * (reduced P. aeruginosa cytotoxicity to 99-75% of untreated, wild type levels at 50 mg/mL)

## O=C(/C=C/c1ccc(F)cc1)Nc1ccc(-c2nc3ncc([N+](=O)[O-])cc3n2O)c(F)c1 [EH]
[1]; [16]
  EC50: < 5 µM
[2]; [17]
  EC50: < 5 µM
[7]
  EC50: > 15.1 µM
[6]
  activity at 50 µg/mL: < 75%
[8]
  Cytotoxicity at 50 μg/mL Pseudomonas: * (reduced P. aeruginosa cytotoxicity to 99-75% of untreated, wild type levels at 50 mg/mL)

## CC(=O)c1ccc(C(=O)Nc2ccc(-c3nc4ccc([N+](=O)O)cc4n3O)cc2)cc1 [F]
[9]
  Efficacy (log10 decrease in the CFU/g kidney tissue): ** (exhibited a 1.1-2.0 log decrease in CFU/g)
[1]; [14]
  EC50: 10 to 25 µM
[10]
  percent of the starting weight of the infected mice: approximately 100%
  percent survival of infected mice: 60%
[11]
  Log Decrease in CFU/g Lung Tissue: ** (key: ***: exhibited a 0-1.0 log decrease in the CFU/g of LcrF in lung tissue; **: exhibited a 1.1-2.0 log decrease in the CFU/g of LcrF in lung tissue; --: exhibited no efficacy)
[2]; [15]
  EC50: 10 to 25 µM
[6]
  activity at 50 µg/mL: < 75%

## Cc1ccc(COn2c(-c3ccccc3)nc3ncccc32)cc1 [GM]
[12]; single dose at the time of infection, 100 mg/kg, p<0.003
  Difference between vehicle treated and compound dose group (kidneys harvested 5 days post infection): statistically significant difference
[12]; subcutaneous at 0, 6, 24, 30, 48, 54, 72 and 96 hours post-infection, 1, 5 and 20 mg/kg, p<0.05
  Difference between untreated (vehicle) and compound dose groups (kidneys harvested 5 days post infection): statistically significant difference

## O=C(Nc1ccc(-c2nc3ccc([N+](=O)O)cc3n2O)cc1)c1ccc(-c2cnco2)cc1 [H]
[9]
  Efficacy (log10 decrease in the CFU/g kidney tissue): ** (exhibited a 1.1-2.0 log decrease in CFU/g)
[1]; [14]
  EC50: 10 to 25 µM
[10]
  percent of the starting weight of the infected mice: approximately 100%
  percent survival of infected mice: 80%
[11]
  Log Decrease in CFU/g Lung Tissue: *** (key: ***: exhibited a 0-1.0 log decrease in the CFU/g of LcrF in lung tissue; **: exhibited a 1.1-2.0 log decrease in the CFU/g of LcrF in lung tissue; --: exhibited no efficacy)
[2]; [15]
  EC50: < 10 µM
[6]
  activity at 50 µg/mL: < 75%

## O=C(/C=C/c1ccc(F)cc1)Nc1ccc(-c2nc3ccc([N+](=O)[O-])cc3n2O)cc1 [M]
[9]
  Efficacy (log10 decrease in the CFU/g kidney tissue): *** (exhibited a 0-1.0 log decrease in CFU/g)
[1]; [14]
  EC50: < 10 µM
[10]
  percent of the starting weight of the infected mice: approximately 120%
  percent survival of infected mice: 80%
[11]
  Log Decrease in CFU/g Lung Tissue: ** (key: ***: exhibited a 0-1.0 log decrease in the CFU/g of LcrF in lung tissue; **: exhibited a 1.1-2.0 log decrease in the CFU/g of LcrF in lung tissue; --: exhibited no efficacy)
[2]; [15]
  EC50: < 10 µM
[6]
  activity at 50 µg/mL: < 75%

## Cc1ccc(/C=C/C(=O)Nc2ccc(-c3nc4ccc([N+](=O)O)cc4n3O)cc2)cc1 [S]
[1]; [14]
  EC50: < 10 µM
[1]; [16]
  EC50: < 5 µM
[2]; [15]
  EC50: < 10 µM
[2]; [17]
  EC50: < 5 µM
[7]
  EC50: > 15.1 µM

## O=C(/C=C/c1ccc(F)cc1F)Nc1ccc(-c2nc3ccc([N+](=O)[O-])cc3n2O)cc1 [V]
[1]; [14]
  EC50: < 10 µM
[1]; [16]
  EC50: < 5 µM
[2]; [15]
  EC50: < 10 µM
[2]; [17]
  EC50: < 5 µM
[7]
  EC50: > 15.1 µM

B1: LANCE target DNA (SEQ ID NO. 1) (dsDNA)
DNA 1: CCGATTTAGCAAAACGTGGCATCGGTC
DNA 2: GACCGATGCCACGTTTTGCTAAATCGG
[13]
  binding result: binds
